Reference: US20020115724A1, “Methods and agents for inhibiting protein aging” (priority 1985, published 2002)
Where a name gives a salt, the structure may show the parent alone. Read-outs that look alike come from different tables or passages of the source.

How the values were obtained:
rats = conditions: hydrochloride, cited from earlier work; for toxicity in animals: in words
normal and diabetic rats [1] = experiment: Aorta collagen solubility (acetic acid, CNBr, pepsin); type: in vivo, rat; conditions: 25 mg/kg daily i.p., 16 weeks
Description: (§1) The experiment consisted of giving both normal and diabetic rats daily intraperitoneal doses of the agent aminoguanidine hydrochloride at a dose of 25 mg per kilogram of body weight, for a period of 16 weeks. […] Diabetes was induced prior to drug therapy with a single dose of streptozotocin. Control animals, both diabetic and normal, received no drug.
(§2) Aorta samples from the same groups of animals described in Example IV above were subjected to analysis for Advanced Glycosylation Endproducts (A.G.E.) content and solubility.
(§3) Aortas were finely minced with dissecting scissors, delipidated with 5 mL of chloroform: methanol (2:1), washed 5 times with buffer, and divided into aliquots for the following assessments of cross-linking:
(B) Solubility in 0.5M acetic acid was determined after 2 hours of extraction at 25° C. and 24 hours at 4° C.
(C) Solubility after cyanogen bromide cleavage at 30° C. for 18 hours was determined.
(D) Solubility after degradation by pepsin (1.0 mg/mL) in 0.1 M acetate buffer, pH 4.1, at 37° C. for 48 hours.
(§4) After treatment for the prescribed period, soluble material was separated from insoluble material by centrifugation (50,000× g, 1 hour), and all fractions were lyophilized and hydrolyzed in 6M HCl for determination of total hydroxyproline.

kidney = conditions: in vivo; cited from earlier work
[2] = system: Streptozotocin-diabetic male Lewis rats; experiment: Tail tendon collagen solubility (pepsin), streptozotocin-diabetic rats; type: in vivo, rat; conditions: 9 months; for Collagen Solubility: tail tendon
Description: Streptozotocin-diabetic male Lewis rats were treated for a 9-month time period with daily doses of aminoguanidine hydrochloride of 0, 6.25, 12.5, 25, and 50 mg/kg/day. After the treatment period, collagen in tail tendon fiber was subjected to solubility determination. Ten mg samples were incubated with gentle rocking for 5 hours at 4° C. in 5 ml of 0.5M acetic acid containing 1 mg pepsin. The samples were then centrifuged at 50,000× g for 1 hour, and the soluble and insoluble fraction separated by decanting. Each fraction was hydrolyzed in 6N HCl and total hydroxyproline measured.

histamine = conditions: in vivo; cited from earlier work
[3] = system: streptozotocin-diabetic rat; conditions: streptozotocin-diabetic rat model; cited from earlier work
bovine serum albumin = experiment: Formation of fluorescent advanced glycosylation end products in albumin incubated with glucose; type: biochemical; conditions: 200 mM agent, 6 mg/mL BSA, 200 mM glucose, 37° C., two-week incubation, vs control
Description: To measure the ability of certain of the agents of the present invention to inhibit the production of advanced glycosylated end products in vitro, albumin and glucose were incubated together for two weeks in the presence of several test agents. Samples were taken at regular intervals for analysis. Advanced glycosylation end products were measured as appearance of fluorescent compounds, and early glycosylation products were measured by incorporation of radiolabeled glucose into albumin. Reaction conditions were as follows. […]
After the incubation periods, samples were treated as follows. After dialysis to remove all unbound glucose, the amount of protein present was measured with a standard dye-binding assay. The amount of glucose which became bound to the albumin, a measure of early glycosylation products, was determined by precipitating albumin with trichloroacetic acid and measuring the radioactivity of the bound glucose using scintillation counting.
The results of this experiment are expressed graphically in FIG. 1. For each sample, incorporation of radiolabeled glucose is indicated by the solid portion of the bar, and fluorescence is indicated in the open portion of the bar. All values are expressed as per milligram of albumin. […]

calf skin collagen = experiment: Calf skin collagen crosslinking by glucose: solubilization in 2% sodium dodecyl sulfate; type: biochemical; conditions: 140 mM glucose, 200 mM aminoguanidine, 3 weeks, 35° C.
Description: As a further evaluation of the compound aminoguanidine as a model for the prevention of protein trapping, crosslinking and formation of advanced glycosylation end products, the following experiment using calf skin collagen was performed. Collagen is a protein in the skin responsible for the suppleness of skin, and crosslinking leads to wrinkling, decreased elasticity, reduced susceptibility to proteolytic degradation, and other changes.
Collagen from samples of calf skin were extracted into acetic acid and then precipitated with 0.6 M sodium chloride. These procedures removed from the solution skin collagen that was already permanently crosslinked or denatured. Native collagen fibrils were reformed by dialysis against 0.02M phosphate buffer, and these were incubated for 3 weeks at 35° C. in the presence of 140 mM glucose and with or without 200 mM aminoguanidine. After incubation, the samples were dialyzed and the degree of crosslinking was determined by two methods. First, the amount of reacted collagen which could be solubilized by treatment in 2% sodium dodecyl sulfate at 100° C. was measured.

normal and diabetic rats [4] = experiment: Aorta advanced glycosylation endproduct content (specific fluorescence of collagen); type: in vivo, rat; conditions: for Advanced glycosylation products: aorta, 25 mg/kg daily i.p., 16 weeks
Description: as §1, §2, §3
(A) Specific fluorescence of collagen after complete solubilization by proteinase k and pepsin.
as §4

diabetic rats = conditions: cited from earlier work
[5] = system: demineralized bone matrix particles; experiment: Bone differentiation of AGE-modified demineralized bone matrix implanted in rats; type: in vivo, rat
Description: In order to assess the possible role of hyperglycemia-induced matrix modifications in this process, demineralized bone matrix particles from 35 week old normal Long-Evans rats were prepared. Matrix is incubated in phosphate buffered saline alone (PBS), PBS containing various sugar precursors of AGE (PBS−G), and PBS with sugars plus the AGE-inhibitor aminoguanidine (PBS−G+AG). After incubation, the matrix is washed and implanted subcutaneously in normal rats. Twelve days after implantation, ^45CaCl2 is injected to determine implant mineralization, and alkaline phosphatase activity is measured to assess osteoblast function. Duplicate specimens are fixed, embedded and stained for histologic evaluation.

N=C(N)NN [aminoguanidine hydrochloride]
toxicity in animals (rats): low toxicity in animals
toxicity in animals (rats; listed as hydrochloride derivative): very low toxicity
LD50 (rats; subcutaneously, rats, listed as hydrochloride derivative): 2984 mg/kg
Percent collagen solubilized by 0.5 M acetic acid (normal and diabetic rats [1]; diabetic rats): 12.6 ± 0.3%
Percent collagen solubilized by CNBr (normal and diabetic rats [1]; diabetic rats): 10.6 ± 0.1%
Percent collagen solubilized by Pepsin (normal and diabetic rats [1]; diabetic rats): 46.1 ± 0.4%
Percent collagen solubilized by 0.5 M acetic acid (normal and diabetic rats [1]; normal rats): 18.7 ± 0.3%
Percent collagen solubilized by CNBr (normal and diabetic rats [1]; normal rats): 13.6 ± 0.3%
Percent collagen solubilized by Pepsin (normal and diabetic rats [1]; normal rats): 52.5 ± 0.2%
immunoglobulin trapping in the kidney (kidney): reduction of immunoglobulin trapping in the kidney
prevention of the diabetes-induced fall in tail tendon collagen solubility ([2]; 6.25 up to 50 mg/kg/day orally): significantly prevented this change in a dose-dependent manner
prevention of the diabetes induced cross-linking ([2]; highest dose (50 mg/kg/day orally)): 80%
Collagen Solubility ([2]; Diabetic, 12.5 mg/kg/day): 66.7 ± 1.2%
Collagen Solubility ([2]; Diabetic, 50 mg/kg/day): 75.9 ± 0.4%
Collagen Solubility ([2]; Normal, 50 mg/kg/day): 88.2 ± 0.2%
levels of histamine (histamine): increase levels of histamine
increased glomerular basement membrane thickness [3]: prevented
formation of fluorescent compounds (advanced glycosylation end products) (bovine serum albumin): dramatically reduced by as much as eightfold
solubility of reacted collagen in 2% sodium dodecyl sulfate at 100° C. (calf skin collagen): as soluble as collagen incubated in buffer alone
Advanced glycosylation products (normal and diabetic rats [4]; diabetic rats): 4.5 ± 0.1 Specific fluorescence per mg hydroxyproline
Advanced glycosylation products (normal and diabetic rats [4]; normal rats): 2.8 ± 0.1 Specific fluorescence per mg hydroxyproline
level of fluorescent advanced glycosylation products in aortic tissue relative to untreated normal rats (normal and diabetic rats [4]; treated diabetic rats vs untreated normal rats): 1.3 times
increased cross-linking of collagen (tendon fiber breaking time in urea bath, mechanical strength) (diabetic rats): prevented
bone differentiation ([5]; matrix incubated with AGE precursor plus aminoguanidine, implanted subcutaneously, 12 days): 80 % of control
matrix AGE content (specific fluorescence) ([5]; simultaneous incubation of matrix with AGE precursor and aminoguanidine): reduced fluorescence to normal
